In patent US20020111274A1, “1-alkyl-3-[1-(substituted phenyl) benzotriazol-6-yl] uracils” (BASF Aktiengesellschaft, priority 2000, published 2002):

Assays:
Parameters in all cases: scale not given here
ECHOG Barnyardgrass = test: Preemergence herbicidal evaluation, ECHOG; format: in vivo, Echinochloa crus-galli, (L.) Beau; settings: preemergence
Text: (§1) The preemergence herbicidal activity of the test compounds of the present invention is exemplified by the following tests in which the seeds of a variety of monocotyledonous and dicotyledonous plants are separately mixed with potting soil and planted on top of approximately one inch of soil in separate pint cups. […] The treated cups are then placed on greenhouse benches, watered and cared for in accordance with conventional greenhouse procedures. From four to five weeks after treatment, the tests are terminated and each cup is examined and rated according to the rating system provided in Example 46.

[1] = system: TRZAWR Wheat, Winter, cv Riband; test: Postemergence herbicidal evaluation, TRZAWR; format: in vivo, Triticum aestivum; settings: postemergence spray, rated about two-three weeks after treatment
Experimental: (§2) In this evaluation, seedling plants are grown in jiffy flats for about two weeks. The test compounds are dispersed in 80/20 acetone/water mixtures containing 1.0% SUN-IT® II, a methylated seed oil, in sufficient quantities to provide the equivalent of about 0.006 kg to 0.400 kg per hectare of active compound when applied to the plants through a spray nozzle operating at 40 psi for a predetermined time. After spraying, the plants are placed on greenhouse benches and are cared for in accordance with conventional greenhouse procedures. Approximately two - three weeks after treatment, the seedling plants are examined and rated according to the rating system set forth below. Where more than one test is involved for a given compound, the data are averaged.

ORYSAT Rice, Tebonnet = test: Preemergence herbicidal evaluation, ORYSAT; format: in vivo, Oryza sativa, (L.); settings: preemergence
Text: as §1

AMBEL Ragweed, Common [2] = test: Preemergence herbicidal evaluation, AMBEL; format: in vivo, Ambrosia artemisifolia, L.; settings: preemergence
Text: as §1

CASOB Sicklepod = test: Preemergence herbicidal evaluation, CASOB; format: in vivo, Cassia obtusifolia, L.; settings: preemergence
Text: as §1

ABUTH Velvetleaf = test: Postemergence herbicidal evaluation, ABUTH; format: in vivo, Abutilon theophrasti, Medic.; settings: postemergence spray, rated about two-three weeks after treatment
Experimental: as §2

[3] = system: IPOHE Morningglory, Ivyleaf; test: Preemergence herbicidal evaluation, IPOHE; format: in vivo, Ipomoea hederacea, (L.) Jacq.; settings: preemergence
Text: as §1

AMBEL Ragweed, Common [4] = test: Postemergence herbicidal evaluation, AMBEL; format: in vivo, Ambrosia artemisifolia, L.; settings: postemergence spray, rated about two-three weeks after treatment
Experimental: as §2

[5] = system: CHEAL Lambsquarters, Common; test: Preemergence herbicidal evaluation, CHEAL; format: in vivo, Chenopodium album, L.; settings: preemergence
Text: as §1

[6] = system: TRZAWR Wheat, Winter, cv Riband; test: Preemergence herbicidal evaluation, TRZAWR; format: in vivo, Triticum aestivum; settings: preemergence
Text: as §1

[7] = system: CHEAL Lambsquarters, Common; test: Postemergence herbicidal evaluation, CHEAL; format: in vivo, Chenopodium album, L.; settings: postemergence spray, rated about two-three weeks after treatment
Experimental: as §2

SETVI Foxtail, Green = test: Postemergence herbicidal evaluation, SETVI; format: in vivo, Setaria viridis, (L.) Beau; settings: postemergence spray, rated about two-three weeks after treatment
Experimental: as §2

Which ECHCG herbicidal rating (ECHOG Barnyardgrass; rate 0.016 kg/ha) does the source give for `Cc1ccccc1-n1nnc2cc(F)c(-n3c(=O)cc(C(F)(F)F)n(C)c3=O)cc21` [Example 20] here?
The ECHCG herbicidal rating was 0.0.

And the ECHCG herbicidal rating (ECHOG Barnyardgrass; rate 0.032 kg/ha)?
Its ECHCG herbicidal rating is 0.0.

What about the ECHCG herbicidal rating (ECHOG Barnyardgrass; rate 0.062 kg/ha) of the same compound?
Its ECHCG herbicidal rating is 3.5.

What about the ECHCG herbicidal rating (ECHOG Barnyardgrass; rate 0.125 kg/ha) of the same compound?
The ECHCG herbicidal rating was 8.0.

What about the “Postemergence herbicidal rating TRZAWR” value ([1]; 0.008 kg/ha) of the same compound?
The value was 1.5.

And the “Postemergence herbicidal rating TRZAWR” value ([1]; 0.016 kg/ha)?
The value was 1.5.

And the “Postemergence herbicidal rating TRZAWR” value ([1]; 0.032 kg/ha)?
The value was 1.5.

And the “Postemergence herbicidal rating TRZAWR” value ([1]; 0.062 kg/ha)?
The value was 2.5.

And the ORYSAT herbicidal rating (ORYSAT Rice, Tebonnet; rate 0.016 kg/ha)?
Its ORYSAT herbicidal rating is 0.0.

What about the ORYSAT herbicidal rating (ORYSAT Rice, Tebonnet; rate 0.032 kg/ha) of the same compound?
Its ORYSAT herbicidal rating is 0.0.

And the ORYSAT herbicidal rating (ORYSAT Rice, Tebonnet; rate 0.062 kg/ha)?
The ORYSAT herbicidal rating was 1.0.

And the ORYSAT herbicidal rating (ORYSAT Rice, Tebonnet; rate 0.125 kg/ha)?
The ORYSAT herbicidal rating was 3.0.

What about the AMBEL herbicidal rating (AMBEL Ragweed, Common [2]; rate 0.016 kg/ha) of the same compound?
The AMBEL herbicidal rating was 0.0.

And the AMBEL herbicidal rating (AMBEL Ragweed, Common [2]; rate 0.032 kg/ha)?
Its AMBEL herbicidal rating is 1.5.

What about the AMBEL herbicidal rating (AMBEL Ragweed, Common [2]; rate 0.062 kg/ha) of the same compound?
The AMBEL herbicidal rating was 2.5.

What about the AMBEL herbicidal rating (AMBEL Ragweed, Common [2]; rate 0.125 kg/ha) of the same compound?
Its AMBEL herbicidal rating is 5.5.

What about the CASOB herbicidal rating (CASOB Sicklepod; rate 0.016 kg/ha) of the same compound?
The CASOB herbicidal rating was 0.0.

What about the CASOB herbicidal rating (CASOB Sicklepod; rate 0.032 kg/ha) of the same compound?
Its CASOB herbicidal rating is 0.0.

And the CASOB herbicidal rating (CASOB Sicklepod; rate 0.062 kg/ha)?
Its CASOB herbicidal rating is 0.0.

What about the CASOB herbicidal rating (CASOB Sicklepod; rate 0.125 kg/ha) of the same compound?
The CASOB herbicidal rating was 2.0.

What about the “Postemergence herbicidal rating ABUTH” value (ABUTH Velvetleaf; 0.008 kg/ha) of the same compound?
The value was 9.0.

And the “Postemergence herbicidal rating ABUTH” value (ABUTH Velvetleaf; 0.016 kg/ha)?
The value was 9.0.

And the “Postemergence herbicidal rating ABUTH” value (ABUTH Velvetleaf; 0.032 kg/ha)?
The value was 9.0.

What about the “Postemergence herbicidal rating ABUTH” value (ABUTH Velvetleaf; 0.062 kg/ha) of the same compound?
The value was 9.0.

And the IPOHE herbicidal rating ([3]; rate 0.016 kg/ha)?
The IPOHE herbicidal rating was 0.0.

What about the IPOHE herbicidal rating ([3]; rate 0.032 kg/ha) of the same compound?
The IPOHE herbicidal rating was 3.0.

What about the IPOHE herbicidal rating ([3]; rate 0.062 kg/ha) of the same compound?
Its IPOHE herbicidal rating is 4.5.

And the IPOHE herbicidal rating ([3]; rate 0.125 kg/ha)?
The IPOHE herbicidal rating was 4.5.

And the “Postemergence herbicidal rating AMBEL” value (AMBEL Ragweed, Common [4]; 0.008 kg/ha)?
Its value is 0.0.

And the “Postemergence herbicidal rating AMBEL” value (AMBEL Ragweed, Common [4]; 0.016 kg/ha)?
The value was 1.0.

And the “Postemergence herbicidal rating AMBEL” value (AMBEL Ragweed, Common [4]; 0.032 kg/ha)?
The value was 1.0.

And the “Postemergence herbicidal rating AMBEL” value (AMBEL Ragweed, Common [4]; 0.062 kg/ha)?
Its value is 3.0.

And the CHEAL herbicidal rating ([5]; rate 0.016 kg/ha)?
Its CHEAL herbicidal rating is 9.0.

And the CHEAL herbicidal rating ([5]; rate 0.032 kg/ha)?
The CHEAL herbicidal rating was 9.0.

And the CHEAL herbicidal rating ([5]; rate 0.062 kg/ha)?
The CHEAL herbicidal rating was 9.0.

What about the CHEAL herbicidal rating ([5]; rate 0.125 kg/ha) of the same compound?
Its CHEAL herbicidal rating is 9.0.

And the TRZAWR herbicidal rating ([6]; rate 0.016 kg/ha)?
Its TRZAWR herbicidal rating is 0.0.

What about the TRZAWR herbicidal rating ([6]; rate 0.032 kg/ha) of the same compound?
The TRZAWR herbicidal rating was 0.0.

What about the TRZAWR herbicidal rating ([6]; rate 0.062 kg/ha) of the same compound?
The TRZAWR herbicidal rating was 4.0.

And the TRZAWR herbicidal rating ([6]; rate 0.125 kg/ha)?
The TRZAWR herbicidal rating was 6.0.

And the “Postemergence herbicidal rating CHEAL” value ([7]; 0.008 kg/ha)?
The value was 0.0.

And the “Postemergence herbicidal rating CHEAL” value ([7]; 0.016 kg/ha)?
Its value is 0.0.

What about the “Postemergence herbicidal rating CHEAL” value ([7]; 0.032 kg/ha) of the same compound?
The value was 3.0.

What about the “Postemergence herbicidal rating CHEAL” value ([7]; 0.062 kg/ha) of the same compound?
Its value is 5.0.

What about the “Postemergence herbicidal rating SETVI” value (SETVI Foxtail, Green; 0.008 kg/ha) of the same compound?
Its value is 0.0.

And the “Postemergence herbicidal rating SETVI” value (SETVI Foxtail, Green; 0.016 kg/ha)?
The value was 0.0.

And the “Postemergence herbicidal rating SETVI” value (SETVI Foxtail, Green; 0.032 kg/ha)?
Its value is 0.0.

What about the “Postemergence herbicidal rating SETVI” value (SETVI Foxtail, Green; 0.062 kg/ha) of the same compound?
Its value is 0.0.
